In ChEMBL document CHEMBL3217553, “Binding properties and biological characterization of new sugar-derived Ras ligands” (Medchemcomm, 2011):
The source made the active and inactive calls. The calls are words filed in the database; no cut-off is given here.

Key:
GTPase HRas [1] = target: T1, GTPase HRas (Homo sapiens, UniProt P01112); assay: Inhibition of recombinant N-terminal His-tagged H-Ras (unknown origin) expressed in Escherichia coli M15 assessed as inhibition of GEF-mediated nucleotide exchange after 300 secs by luminescence spectrophotometry
Target sequence in this assay (P01112 whole entry): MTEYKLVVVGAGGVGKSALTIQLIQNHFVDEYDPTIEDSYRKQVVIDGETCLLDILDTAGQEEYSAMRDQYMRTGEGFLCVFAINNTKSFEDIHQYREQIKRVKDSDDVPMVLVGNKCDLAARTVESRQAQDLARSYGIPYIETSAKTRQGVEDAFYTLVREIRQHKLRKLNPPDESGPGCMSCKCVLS

GTPase HRas [2] = target: T1, GTPase HRas; assay: Binding affinity to [15N]-H-Ras (1 to 166) (unknown origin) by NMR spectrometry
Target sequence in this assay (P01112 whole entry): as above

[3] = Inhibition of cell proliferation in mouse NIH/3T3 cells after 24 to 72 hrs by coulter counting analysis; format: cell-based; conditions: nih3t3
[4] = Inhibition of cell proliferation in mouse NIH/3T3 cells at 100 uM after 24 to 72 hrs by coulter counting analysis; format: cell-based; conditions: nih3t3, 100 µM
NIH3T3 [5] = assay: Inhibition of cell proliferation in mouse NIH/3T3 cells expressing K-RAS after 24 to 72 hrs by coulter counting analysis; format: functional, cell-based
NIH3T3 [6] = assay: Inhibition of cell proliferation in mouse NIH/3T3 cells expressing K-RAS at 100 uM after 24 to 72 hrs by coulter counting analysis; format: functional, cell-based
GTPase HRas [7] = target: T1, GTPase HRas; assay: Inhibition of recombinant N-terminal His-tagged H-Ras (unknown origin) expressed in Escherichia coli M15 assessed as inhibition of human Sos1-mediated nucleotide exchange after 300 secs by luminescence spectrophotometry
Mus musculus = species on record: Mus musculus; assay: Inhibition of Ras in mouse NIHRAS cells assessed as reduction of phosphorylated MAPK level at 250 uM after 24 hrs by sandwich ELISA; format: cell-based

| IC50 (GTPase HRas [1]) | Kd (GTPase HRas [2]) | IC50 (GTPase HRas [7]) | inhibition (GTPase HRas [7]) | SMILES | inhibition (INH) [3] | Activity [4] | inhibition (NIH3T3 [5]) | inhibition (NIH3T3 [6]) | inhibition (Mus musculus) |
| --- | --- | --- | --- | --- | --- | --- | --- | --- | --- |
| 320 µM | 21.4 µM |  |  | Oc1ccc(CNOCc2ccccc2)cc1O |  |  |  |  |  |
| 100 µM | 7.8 µM |  |  | OC[C@H]1O[C@@H](O[C@H]2[C@H](O)[C@@H](O)C(N(Cc3ccc(O)c(O)c3)OCc3ccccc3)O[C@@H]2CO)[C@H](O)[C@@H](O)[C@H]1O (stereo partly drawn) | Dose-dependent effect | Toxic | Dose-dependent effect | Active |  |
| 80 µM | 5.5 µM | 122 µM | Dose-dependent effect | CC(=O)N[C@H]1C(N(Cc2ccc(O)c(O)c2)OCc2ccccc2)O[C@H](CO)[C@@H](O)[C@@H]1O (stereo partly drawn) | Dose-dependent effect | Toxic | Dose-dependent effect | Active | Active |
| 80 µM | 9.5 µM |  |  | OC[C@H]1OC(N(Cc2ccc(O)c(O)c2)OCc2ccccc2)[C@H](O)[C@@H](O)[C@@H]1O (stereo partly drawn) | Dose-dependent effect | Toxic | Dose-dependent effect | Active |  |
